Experimental data published in patent US20240226020A1 (AMGEN INC., priority 2021, published 2024).
Entries after “also recorded” stand apart in the source; their conditions may differ.

Key:
[1] = Water dispersion study: safety and tolerability; format: in vivo; details: healthy subjects
Procedure: Doses were administered orally on Days 1 and 4 during the mornings after an overnight fast of at least 10 hours. A total of 13 subjects entered the study (7 subjects receiving treatment in the sequences of Treatment A followed by Treatment B; and 6 subjects receiving treatment in the sequences of Treatment B followed by Treatment A). Data for all subjects was included in the pharmacokinetic (PK) and safety analyses. […] All events resolved by the end of the study.

[2] = Water dispersion study: pharmacokinetics of 8×120 mg tablets versus tablets dispersed in water; format: in vivo, healthy subjects; details: plasma; for AUC(0-inf): human, oral, 960 mg, Geometric mean sotorasib AUCinf
Procedure: Doses were administered orally on Days 1 and 4 during the mornings after an overnight fast of at least 10 hours. A total of 13 subjects entered the study (7 subjects receiving treatment in the sequences of Treatment A followed by Treatment B; and 6 subjects receiving treatment in the sequences of Treatment B followed by Treatment A). Data for all subjects was included in the pharmacokinetic (PK) and safety analyses. […] PK parameters including AUClast, AUCinf, and Cmax were estimated and compared between Treatment A and Treatment B. The natural log-transformed PK parameters were analyzed using a mixed model. The model included treat, period, and sequence as fixed effect and subject nested within a sequence as a random effect. […] Additionally, the pooled estimate (across all treatments) of the within-subject coefficient of variation was calculated, and residual plots were produced to assess the adequacy of the model(s) fitted.

[3] = Compressibility (tablet solid fraction as a function of compaction pressure); format: physicochemical
Procedure: (§1) After compression, tablets were measured for their ejected weight, thickness and diameter. Tablets were then stored for minimally 48 hours to allow for complete viscoelastic relaxation. The recovered dimensions were measured prior to diametrical compression testing performed using the HB compaction simulator operating at a constant loading rate of 5 mm/min. The force required to cause diametrical failure was recorded and used to compute radial tensile strength values.
Compressibility: The ability of a powder bed to be reduced in volume due to the application of an applied stress gives an indication of powder compressibility. This behavior is described in terms of tablet solid fraction as a function of compaction pressure (see Table 38). Interpretation of the data considers the change in solid fraction between two pressure conditions. The increased difference in SF at a high pressure and a low pressure is indicative of increased compressibility of the blend. […] Therefore, a 3:1 plastic to brittle diluent ratio, e.g., a 3:1 Avicel PH102 to lactose ratio, is preferred.

[4] = Compactibility and tabletability (radial tensile strength, compression pressure); format: physicochemical
Procedure: as §1
Compactibility and Tabletability: The ability of a powder bed to cohere into or to form a compact gives an indication of powder compactibility. This behavior is described as a plot of tablet radial tensile strength (RTS) as a function of tablet solid fraction (SF) (FIG. 12A). For understanding fundamental material behavior, it is advantageous to compare materials at similar levels of solid fraction. […] The compactibility of all three placebo blends can be classified as “low” because each blend has been previously dry granulated. Tabletability is another relevant parameter which is useful in identifying the pressure needed to achieve a specific tablet hardness or tensile strength. This behavior is described as a plot of tablet radial tensile strength (RTS) as a function of compaction pressure (FIG. 12B).

[5] = system: extracellular signal-regulated kinase (ERK); details: preclinical studies; cited from earlier work

C=CC(=O)N1CCN(c2nc(=O)n(-c3c(C)ccnc3C(C)C)c3nc(-c4c(O)cccc4F)c(F)cc23)[C@@H](C)C1 (atropisomer, axis not shown; (M)) [Sotorasib, 6-fluoro-7-(2-fluoro-6-hydroxyphenyl)-(1M)-1-[4-methyl-2-(propan-2-yl)pyridin-3-yl]-4-[(2S)-2-methyl-4-(prop-2-enoyl)piperazin-1-yl]pyrido[2,3-d]pyrimidin-2(1H)-one]
Safety and tolerability ([1]; single doses of 960 mg as tablets dispersed in water and as tablets): safe and well tolerated; also recorded: safe and well-tolerated
Clinical laboratory evaluations, vital signs, 12-lead ECGs ([1]; single doses of 960 mg): no clinically significant findings
Serious adverse events ([1]; single doses of 960 mg): no serious adverse events
Treatment-emergent adverse events ([1]; single doses of 960 mg, all mild, related to sotorasib, resolved): Three treatment-emergent adverse events of constipation, nausea and vomiting
median sotorasib tmax ([2]; 8×120 mg tablets (Formulation #8) dispersed in water (Treatment B), single oral dose, fasted): 1 h
AUC(0-inf) ([2]; administered as tablets (Treatment A)): 25300 ng·h/mL
AUC(0-inf) ([2]; administered as water dispersion (Treatment B)): 26400 ng·h/mL
applied pressure required to produce a tablet with an out of die solid fraction of 0.85 [3]: approximately 145 MPa
Assessment of compressibility and compactibility [4]: high levels of compressibility combined with very low levels of compactibility
solid fraction at a theoretical strength value of 2 MPa [4]: 0.85
RTS (MPa) @ 0.85 SF ([4]; 0.85 SF): 1.59 MPa
RTS (MPa) @ 150 MPa ([4]; 150 MPa): 1.62 MPa
CP (MPa) @ RTS = 2 MPa ([4]; RTS = 2 MPa): 149.00 MPa
SF @ RTS = 2 MPa ([4]; RTS = 2 MPa): 0.85
radial tensile strength ([4]; compressed to a peak pressure of 150 MPa): 1.62 MPa
radial tensile strength ([4]; compressed to an out of die solid fraction of 0.85): 1.59 MPa
phosphorylation of extracellular signal-regulated kinase (ERK) [5]: inhibited nearly all detectable phosphorylation
